In the kinase profiling compilation of Christmann-Franck et al. (2016):

Key:
Assay in all cases: radiometric filter-binding kinase assay, Kinase HotSpot
Conditions in all cases: compound 0.5 µM; ATP 10 µM
AXL (human) = AXL (human) (UniProt P30530)
CAMK2D (human) = CAMK2D (human) (UniProt Q13557)
CDK2 CCNE1 (human) = CDK2 CCNE1 (human) (UniProt P24941+P24864)
CDK5 CDK5R1 p35 (human) = CDK5 CDK5R1 p35 (human) (UniProt Q00535+Q15078)
CLK2 (human) = CLK2 (human) (UniProt P49760)
CLK4 (human) = CLK4 (human) (UniProt Q9HAZ1)
DAPK2 (human) = DAPK2 (human) (UniProt Q9UIK4)
DCLK2 (human) = DCLK2 (human) (UniProt Q8N568)
EGFR (human) = EGFR (human) (UniProt P00533)
EPHA2 (human) = EPHA2 (human) (UniProt P29317)
EPHA3 (human) = EPHA3 (human) (UniProt P29320)
EPHB1 (human) = EPHB1 (human) (UniProt P54762)
FER (human) = FER (human) (UniProt P16591)
GRK4 (human) = GRK4 (human) (UniProt P32298)
GRK6 (human) = GRK6 (human) (UniProt P43250)
GSK3B (human) = GSK3B (human) (UniProt P49841)
HIPK1 (human) = HIPK1 (human) (UniProt Q86Z02)
HIPK4 (human) = HIPK4 (human) (UniProt Q8NE63)
LCK (human) = LCK (human) (UniProt P06239)
LIMK1 (human) = LIMK1 (human) (UniProt P53667)
MAP4K2 (human) = MAP4K2 (human) (UniProt Q12851)
MAP4K4 (human) = MAP4K4 (human) (UniProt O95819)
MAPKAPK2 (human) = MAPKAPK2 (human) (UniProt P49137)
MAPKAPK3 (human) = MAPKAPK3 (human) (UniProt Q16644)
MAPKAPK5 (human) = MAPKAPK5 (human) (UniProt Q8IW41)
MARK2 (human) = MARK2 (human) (UniProt Q7KZI7)
MARK4 (human) = MARK4 (human) (UniProt Q96L34)
MKNK2 (human) = MKNK2 (human) (UniProt Q9HBH9)
MUSK (human) = MUSK (human) (UniProt O15146)
NLK (human) = NLK (human) (UniProt Q9UBE8)
PAK1 (human) = PAK1 (human) (UniProt Q13153)
PAK6 (human) = PAK6 (human) (UniProt Q9NQU5)
PDPK1 (human) = PDPK1 (human) (UniProt O15530)
PRKCB1 (human) = PRKCB1 (human) (UniProt P05771)
PRKCB2 (human) = PRKCB2 (human) (UniProt P05771)
RPS6KA3 KD1 KD2 (human) = RPS6KA3 KD1 KD2 (human) (UniProt P51812)
SRMS (human) = SRMS (human) (UniProt Q9H3Y6)
STK39 (human) = STK39 (human) (UniProt Q9UEW8)
TAOK3 (human) = TAOK3 (human) (UniProt Q9H2K8)
TSSK2 (human) = TSSK2 (human) (UniProt Q96PF2)
TTK (human) = TTK (human) (UniProt P33981)
VRK1 (human) = VRK1 (human) (UniProt Q99986)
Chain of VRK1 (human) (Q99986 whole entry, looked up): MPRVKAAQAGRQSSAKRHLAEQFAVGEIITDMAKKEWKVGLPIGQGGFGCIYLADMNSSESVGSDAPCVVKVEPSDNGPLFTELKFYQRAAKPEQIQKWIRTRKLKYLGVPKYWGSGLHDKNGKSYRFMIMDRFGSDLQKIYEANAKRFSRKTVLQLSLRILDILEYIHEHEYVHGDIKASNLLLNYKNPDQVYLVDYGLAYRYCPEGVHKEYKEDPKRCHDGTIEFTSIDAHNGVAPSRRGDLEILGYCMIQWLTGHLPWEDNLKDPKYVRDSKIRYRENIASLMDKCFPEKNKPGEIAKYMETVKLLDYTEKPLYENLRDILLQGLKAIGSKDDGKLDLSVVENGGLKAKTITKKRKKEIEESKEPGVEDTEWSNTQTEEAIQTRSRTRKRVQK

Chain of GSK3B (human) (P49841 whole entry, looked up): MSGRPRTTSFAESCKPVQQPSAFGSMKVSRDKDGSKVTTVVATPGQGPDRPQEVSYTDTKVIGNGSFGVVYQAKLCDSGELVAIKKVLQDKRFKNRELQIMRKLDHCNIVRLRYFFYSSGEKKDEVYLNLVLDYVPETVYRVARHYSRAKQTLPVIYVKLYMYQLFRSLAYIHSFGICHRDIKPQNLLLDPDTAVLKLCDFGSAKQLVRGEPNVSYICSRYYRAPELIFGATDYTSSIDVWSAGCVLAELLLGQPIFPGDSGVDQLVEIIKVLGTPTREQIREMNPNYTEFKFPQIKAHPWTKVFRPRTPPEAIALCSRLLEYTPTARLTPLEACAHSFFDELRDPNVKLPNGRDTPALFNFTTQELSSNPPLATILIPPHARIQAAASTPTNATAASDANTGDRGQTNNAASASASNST
Chain of MAPKAPK3 (human) (Q16644 whole entry, looked up): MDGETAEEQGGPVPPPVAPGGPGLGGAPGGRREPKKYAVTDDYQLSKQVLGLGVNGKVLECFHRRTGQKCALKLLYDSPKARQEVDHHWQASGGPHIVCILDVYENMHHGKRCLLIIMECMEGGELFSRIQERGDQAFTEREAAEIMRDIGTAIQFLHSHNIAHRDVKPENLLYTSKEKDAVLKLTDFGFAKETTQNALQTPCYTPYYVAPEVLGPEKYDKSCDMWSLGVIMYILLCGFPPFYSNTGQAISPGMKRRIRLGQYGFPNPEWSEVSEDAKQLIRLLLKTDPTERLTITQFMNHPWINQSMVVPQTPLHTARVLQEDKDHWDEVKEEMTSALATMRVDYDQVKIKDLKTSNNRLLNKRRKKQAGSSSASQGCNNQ
Chain of TSSK2 (human) (Q96PF2 whole entry, looked up): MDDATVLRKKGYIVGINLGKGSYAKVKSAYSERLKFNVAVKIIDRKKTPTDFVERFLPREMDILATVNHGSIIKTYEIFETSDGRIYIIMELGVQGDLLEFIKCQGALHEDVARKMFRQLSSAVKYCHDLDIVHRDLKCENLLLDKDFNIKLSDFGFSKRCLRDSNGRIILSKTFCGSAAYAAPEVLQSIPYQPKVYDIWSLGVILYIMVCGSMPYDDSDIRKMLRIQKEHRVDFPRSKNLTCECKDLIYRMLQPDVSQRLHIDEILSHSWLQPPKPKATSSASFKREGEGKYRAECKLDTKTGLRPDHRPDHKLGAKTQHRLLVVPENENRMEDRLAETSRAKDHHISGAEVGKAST
Chain of MAP4K2 (human) (Q12851 whole entry, looked up): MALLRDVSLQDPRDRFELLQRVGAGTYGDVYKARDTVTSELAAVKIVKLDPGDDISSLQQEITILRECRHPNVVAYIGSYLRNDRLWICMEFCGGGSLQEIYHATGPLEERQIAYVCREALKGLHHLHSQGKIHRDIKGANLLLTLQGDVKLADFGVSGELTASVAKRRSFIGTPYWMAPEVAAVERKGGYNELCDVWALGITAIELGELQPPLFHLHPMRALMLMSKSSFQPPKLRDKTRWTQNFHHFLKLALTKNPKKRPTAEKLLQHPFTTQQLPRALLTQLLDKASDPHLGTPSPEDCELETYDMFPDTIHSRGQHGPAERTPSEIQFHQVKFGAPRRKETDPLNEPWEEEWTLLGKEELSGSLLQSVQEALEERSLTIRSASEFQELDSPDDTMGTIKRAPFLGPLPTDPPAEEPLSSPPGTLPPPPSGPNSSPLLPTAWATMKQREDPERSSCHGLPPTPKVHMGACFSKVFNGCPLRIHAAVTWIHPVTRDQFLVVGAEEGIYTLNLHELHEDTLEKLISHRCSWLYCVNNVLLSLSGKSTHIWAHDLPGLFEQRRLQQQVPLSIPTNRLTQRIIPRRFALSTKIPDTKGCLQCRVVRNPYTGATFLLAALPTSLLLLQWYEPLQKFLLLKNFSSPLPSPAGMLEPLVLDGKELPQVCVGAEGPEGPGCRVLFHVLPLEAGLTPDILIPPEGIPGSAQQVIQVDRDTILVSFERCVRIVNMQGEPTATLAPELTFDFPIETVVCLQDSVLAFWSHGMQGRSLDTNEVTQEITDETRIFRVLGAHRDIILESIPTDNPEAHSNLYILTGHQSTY
Chain of HIPK4 (human) (Q8NE63 whole entry, looked up): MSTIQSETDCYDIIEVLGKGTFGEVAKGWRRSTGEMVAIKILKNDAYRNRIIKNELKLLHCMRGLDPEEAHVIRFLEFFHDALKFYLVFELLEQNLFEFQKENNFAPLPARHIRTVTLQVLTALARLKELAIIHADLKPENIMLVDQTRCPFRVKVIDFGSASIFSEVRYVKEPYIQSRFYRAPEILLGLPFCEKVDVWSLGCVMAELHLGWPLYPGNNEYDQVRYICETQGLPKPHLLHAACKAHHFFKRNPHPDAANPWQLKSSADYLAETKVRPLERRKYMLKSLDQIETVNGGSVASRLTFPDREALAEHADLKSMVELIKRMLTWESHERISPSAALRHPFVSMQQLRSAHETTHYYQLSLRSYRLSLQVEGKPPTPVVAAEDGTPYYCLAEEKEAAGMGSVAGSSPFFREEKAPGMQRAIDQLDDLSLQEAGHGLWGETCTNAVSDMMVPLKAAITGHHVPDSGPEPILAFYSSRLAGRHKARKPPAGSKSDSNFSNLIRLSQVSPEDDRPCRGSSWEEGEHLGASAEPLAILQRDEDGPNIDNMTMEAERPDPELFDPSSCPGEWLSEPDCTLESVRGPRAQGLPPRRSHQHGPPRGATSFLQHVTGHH
Chain of TTK (human) (P33981 whole entry, looked up): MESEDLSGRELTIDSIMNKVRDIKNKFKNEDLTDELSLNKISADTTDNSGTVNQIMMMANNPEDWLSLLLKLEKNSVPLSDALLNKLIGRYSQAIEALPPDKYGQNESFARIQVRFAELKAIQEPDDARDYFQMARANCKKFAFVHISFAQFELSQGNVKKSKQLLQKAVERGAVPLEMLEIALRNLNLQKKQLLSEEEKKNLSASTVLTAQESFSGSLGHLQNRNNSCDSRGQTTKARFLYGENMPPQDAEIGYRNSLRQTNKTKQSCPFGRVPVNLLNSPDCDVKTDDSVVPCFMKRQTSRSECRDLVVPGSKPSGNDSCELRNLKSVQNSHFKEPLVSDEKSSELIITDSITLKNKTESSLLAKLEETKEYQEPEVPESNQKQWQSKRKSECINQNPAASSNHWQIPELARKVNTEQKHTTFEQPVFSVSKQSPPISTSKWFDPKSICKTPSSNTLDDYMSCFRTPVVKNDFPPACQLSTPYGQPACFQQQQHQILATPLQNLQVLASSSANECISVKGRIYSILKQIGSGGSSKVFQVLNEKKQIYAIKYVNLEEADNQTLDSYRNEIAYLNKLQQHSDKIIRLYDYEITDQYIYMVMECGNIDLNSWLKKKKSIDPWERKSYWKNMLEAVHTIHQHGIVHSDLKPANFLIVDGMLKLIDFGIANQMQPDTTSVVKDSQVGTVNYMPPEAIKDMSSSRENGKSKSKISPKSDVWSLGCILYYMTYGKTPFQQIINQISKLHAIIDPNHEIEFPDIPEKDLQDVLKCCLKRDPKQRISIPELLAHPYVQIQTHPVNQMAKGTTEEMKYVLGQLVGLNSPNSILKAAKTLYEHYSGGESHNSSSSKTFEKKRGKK
Chain of MARK2 (human) (Q7KZI7 whole entry, looked up): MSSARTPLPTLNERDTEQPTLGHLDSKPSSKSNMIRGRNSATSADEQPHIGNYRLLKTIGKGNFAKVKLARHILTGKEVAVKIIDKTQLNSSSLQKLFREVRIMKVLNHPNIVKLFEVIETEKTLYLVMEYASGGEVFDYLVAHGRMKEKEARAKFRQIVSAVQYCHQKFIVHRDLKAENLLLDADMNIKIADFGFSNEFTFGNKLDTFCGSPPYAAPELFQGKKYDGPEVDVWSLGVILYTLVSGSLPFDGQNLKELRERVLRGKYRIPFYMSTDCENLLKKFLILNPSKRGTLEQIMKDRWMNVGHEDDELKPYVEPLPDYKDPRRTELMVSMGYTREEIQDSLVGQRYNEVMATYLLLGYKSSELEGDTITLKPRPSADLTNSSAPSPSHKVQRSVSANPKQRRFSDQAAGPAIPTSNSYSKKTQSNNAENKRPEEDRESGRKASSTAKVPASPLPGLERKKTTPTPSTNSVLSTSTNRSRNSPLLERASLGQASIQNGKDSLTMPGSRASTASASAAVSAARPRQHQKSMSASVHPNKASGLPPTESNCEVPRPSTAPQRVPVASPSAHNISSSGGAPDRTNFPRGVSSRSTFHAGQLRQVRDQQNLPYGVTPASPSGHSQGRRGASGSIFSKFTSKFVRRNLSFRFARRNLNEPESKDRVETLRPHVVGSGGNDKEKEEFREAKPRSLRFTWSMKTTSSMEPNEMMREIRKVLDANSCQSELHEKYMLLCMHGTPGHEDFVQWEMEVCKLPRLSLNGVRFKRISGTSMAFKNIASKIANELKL
Chain of DAPK2 (human) (Q9UIK4 whole entry, looked up): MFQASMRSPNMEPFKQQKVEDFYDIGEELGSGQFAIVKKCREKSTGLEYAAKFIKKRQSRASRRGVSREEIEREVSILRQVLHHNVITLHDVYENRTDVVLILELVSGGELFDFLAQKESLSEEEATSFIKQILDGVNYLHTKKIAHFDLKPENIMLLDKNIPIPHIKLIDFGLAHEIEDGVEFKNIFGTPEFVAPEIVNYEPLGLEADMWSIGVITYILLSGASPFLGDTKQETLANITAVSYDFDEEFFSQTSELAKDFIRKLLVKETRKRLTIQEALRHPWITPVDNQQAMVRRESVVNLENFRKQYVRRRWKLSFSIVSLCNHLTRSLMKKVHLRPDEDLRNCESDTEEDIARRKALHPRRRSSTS

## COc1ccc(Cl)cc1NC(=O)Nc1cc(C)nc2ccccc12
AXL (human)
  residual activity: 94%
CAMK2D (human)
  residual activity: 98.2%
CDK2 CCNE1 (human)
  residual activity: 94.6%
CDK5 CDK5R1 p35 (human)
  residual activity: 102%
CLK2 (human)
  residual activity: 97.7%
CLK4 (human)
  residual activity: 108%
DAPK2 (human)
  residual activity: 99.1%
DCLK2 (human)
  residual activity: 96.5%
EGFR (human)
  residual activity: 98%
EPHA2 (human)
  residual activity: 100%
EPHA3 (human)
  residual activity: 99.1%
EPHB1 (human)
  residual activity: 102%
FER (human)
  residual activity: 92.4%
GRK4 (human)
  residual activity: 105%
GRK6 (human)
  residual activity: 105%
GSK3B (human)
  residual activity: 91.6%
HIPK1 (human)
  residual activity: 97.2%
HIPK4 (human)
  residual activity: 109%
LCK (human)
  residual activity: 98.2%
LIMK1 (human)
  residual activity: 87.1%
MAP4K2 (human)
  residual activity: 114%
MAP4K4 (human)
  residual activity: 84.7%
MAPKAPK2 (human)
  residual activity: 109%
MAPKAPK3 (human)
  residual activity: 101%
MAPKAPK5 (human)
  residual activity: 89.1%
MARK2 (human)
  residual activity: 99.5%
MARK4 (human)
  residual activity: 79.7%
MKNK2 (human)
  residual activity: 90.3%
MUSK (human)
  residual activity: 93.3%
NLK (human)
  residual activity: 94.5%
PAK1 (human)
  residual activity: 94.8%
PAK6 (human)
  residual activity: 96.5%
PDPK1 (human)
  residual activity: 83.9%
PRKCB1 (human)
  residual activity: 105%
PRKCB2 (human)
  residual activity: 109%
RPS6KA3 KD1 KD2 (human)
  residual activity: 96.2%
SRMS (human)
  residual activity: 97.6%
STK39 (human)
  residual activity: 98.5%
TAOK3 (human)
  residual activity: 105%
TSSK2 (human)
  residual activity: 94%
TTK (human)
  residual activity: 103%
VRK1 (human)
  residual activity: 84.6%

## Cc1cccc(-c2nc(C(C)(C)C)[nH]c2-c2ccc3c(c2)OCO3)n1
AXL (human)
  residual activity: 101%
CAMK2D (human)
  residual activity: 100%
CDK2 CCNE1 (human)
  residual activity: 95.6%
CDK5 CDK5R1 p35 (human)
  residual activity: 98.5%
CLK2 (human)
  residual activity: 95.2%
CLK4 (human)
  residual activity: 95.8%
DAPK2 (human)
  residual activity: 102%
DCLK2 (human)
  residual activity: 101%
EGFR (human)
  residual activity: 96.4%
EPHA2 (human)
  residual activity: 99.2%
EPHA3 (human)
  residual activity: 101%
EPHB1 (human)
  residual activity: 95.5%
FER (human)
  residual activity: 85.4%
GRK4 (human)
  residual activity: 101%
GRK6 (human)
  residual activity: 101%
GSK3B (human)
  residual activity: 96.8%
HIPK1 (human)
  residual activity: 101%
HIPK4 (human)
  residual activity: 107%
LCK (human)
  residual activity: 97.9%
LIMK1 (human)
  residual activity: 86.2%
MAP4K2 (human)
  residual activity: 102%
MAP4K4 (human)
  residual activity: 86.9%
MAPKAPK2 (human)
  residual activity: 103%
MAPKAPK3 (human)
  residual activity: 94.1%
MAPKAPK5 (human)
  residual activity: 96.1%
MARK2 (human)
  residual activity: 90%
MARK4 (human)
  residual activity: 99.7%
MKNK2 (human)
  residual activity: 87.8%
MUSK (human)
  residual activity: 99.1%
NLK (human)
  residual activity: 87.9%
PAK1 (human)
  residual activity: 96.3%
PAK6 (human)
  residual activity: 103%
PDPK1 (human)
  residual activity: 89.8%
PRKCB1 (human)
  residual activity: 82.5%
PRKCB2 (human)
  residual activity: 99.9%
RPS6KA3 KD1 KD2 (human)
  residual activity: 82.4%
SRMS (human)
  residual activity: 102%
STK39 (human)
  residual activity: 107%
TAOK3 (human)
  residual activity: 102%
TSSK2 (human)
  residual activity: 92.7%
TTK (human)
  residual activity: 89%
VRK1 (human)
  residual activity: 97.5%

## CCCCc1c(-c2ccc(OC)cc2)[nH]c2nccnc12
AXL (human)
  residual activity: 110%
CAMK2D (human)
  residual activity: 93.3%
CDK2 CCNE1 (human)
  residual activity: 42.1%
CDK5 CDK5R1 p35 (human)
  residual activity: 48.3%
CLK2 (human)
  residual activity: 85.3%
CLK4 (human)
  residual activity: 73.2%
DAPK2 (human)
  residual activity: 101%
DCLK2 (human)
  residual activity: 101%
EGFR (human)
  residual activity: 103%
EPHA2 (human)
  residual activity: 87.9%
EPHA3 (human)
  residual activity: 91.9%
EPHB1 (human)
  residual activity: 76%
FER (human)
  residual activity: 59.8%
GRK4 (human)
  residual activity: 96.7%
GRK6 (human)
  residual activity: 88.3%
GSK3B (human)
  residual activity: 70.2%
HIPK1 (human)
  residual activity: 109%
HIPK4 (human)
  residual activity: 119%
LCK (human)
  residual activity: 85%
LIMK1 (human)
  residual activity: 65.3%
MAP4K2 (human)
  residual activity: 65.1%
MAP4K4 (human)
  residual activity: 66.5%
MAPKAPK2 (human)
  residual activity: 90.2%
MAPKAPK3 (human)
  residual activity: 98.6%
MAPKAPK5 (human)
  residual activity: 95.3%
MARK2 (human)
  residual activity: 83.1%
MARK4 (human)
  residual activity: 88.3%
MKNK2 (human)
  residual activity: 99.3%
MUSK (human)
  residual activity: 95.4%
NLK (human)
  residual activity: 88.4%
PAK1 (human)
  residual activity: 83.7%
PAK6 (human)
  residual activity: 96.8%
PDPK1 (human)
  residual activity: 102%
PRKCB1 (human)
  residual activity: 99.4%
PRKCB2 (human)
  residual activity: 106%
RPS6KA3 KD1 KD2 (human)
  residual activity: 88%
SRMS (human)
  residual activity: 96.7%
STK39 (human)
  residual activity: 77.8%
TAOK3 (human)
  residual activity: 103%
TSSK2 (human)
  residual activity: 93.7%
TTK (human)
  residual activity: 87.9%
VRK1 (human)
  residual activity: 95.5%
